The record followed here is patent US10981864B2, “Crystalline modifications of N-(4,5-bismethanesulfonyl-2-methylbenzoyl)guanidine hydrochloride and N-(4,5-bismethanesulfonyl-2-methylbenzoyl)guanidine salts” (MERCK PATENT GMBH, priority 2016, dated 2021).

Where “and” joins values, the source holds several entries; their conditions need not be identical. Identical values can stand only once. Counter-ions that a name gives are not always drawn.

Common to all, as to format: physicochemical
The nature of data set [1]: Thermal behaviour (DSC/TGA), thermal stability. Conditions: for Thermal stability (mp/dec): DSC/TGA 5 K/min. Here is the method:
As used herein, unless stated otherwise, the DSC measurements are carried out using a Mettler-Toledo DSC 821 with a heating rate of 5 K/min, using nitrogen purge gas at 50 mL/min.
As used herein, unless stated otherwise, the TGA measurements are carried out using a Mettler-Toledo TGA 851 with a heating rate of 5 K/min, using nitrogen purge gas at 50 mL/min.

Data set [2] is described as follows: Mini-dissolution in FeSSIF medium (pH 5.0), dissolved quantity by HPLC. Conditions: for Dissolution levels in FeSSIF pH 5.0: FeSSIF pH 5.0, 37° C.; for Dissolution behavior compared to prior-art form HCl-H1: biorelevant media, Fed-state conditions (FeSSIF, pH 5.0). How it is done:
Approximately 10-12 mg of N-(4,5-bis-methanesulfonyl-2-methyl-benzoyl)guanidine form HCl-H1 (HCl salt hydrate form, prior-art), HCl salt anhydrous forms (forms HCl-A1, HCl-A2, HCl-A3), and novel salt forms [phosphate salt (form Phosphate-NF1), maleate salt (form Maleate-NF2), oxalate salt (form Oxalate-NF1), citrate salt (form citrate-NF1), sulfate salt (form Sulfate-NF3), succinate salt (form Succinate-NF1), malonate salt (form Malonate-NF1), besylate salt (form Besylate-NF1), p-tosylate salt (form Tosylate-NF1), malate salt (form Malate-NF1), fumarate salt (form Fumarate-NF1), tartrate salt (form Tartrate-NF1)] are weighed into 4 mL glass vials, and dispersed in 4 mL FeSSIF medium (pH 5.0, Acetate buffer capacity increased by factor 4 to ensure stable pH conditions over course of dissolution experiments).
All dispersions are agitated at 37° C. for up to 2 hours. At defined time intervals (5 min, 15 min, 60 min, 120 min), 0.4 mL sample aliquots of homogeneous dispersions are withdrawn by a syringe, and filtrated via syringe filter adapters (PTFE, 0.2 μm). Clear filtrates are diluted (1:20) with respective Acetate blank buffer, and diluted samples analyzed by HPLC for dissolved quantities of N-(4,5-bis-methanesulfonyl-2-methyl-benzoyl)-guanidine.

Data set [3] in a line: Water Vapour Sorption isotherm (DVS), hygroscopicity acc. to Ph. Eur. Conditions: for Water uptake levels (Water Vapour Sorption): 25° C.; for Tendency to undergo hydrate formation: upon exposure to elevated RH levels. Here is the method:
As used herein, unless stated otherwise, Water Vapour Sorption isotherm measurements are carried out on a DVS-1 or a DVS-Intrinsic system from SMS.
A second endothermic event occurs at >180° C., which is due to melting of the dehydrated form. This is followed by immediate re-crystallisation (exothermic event), and subsequent melting of the re-crystallized phase at >240° C. […] DSC scan of form HCl-H1 was acquired on a Mettler-Toledo DSC 821 with a heating rate of 5 K/min, using nitrogen purge gas at 50 mL/min. […] Form HCl-H1 can be classified as non-hygroscopic acc. to Ph. Eur. criteria (section 5.11.). […] Water Vapour Sorption isotherm was acquired on a DVS-1 system from SMS. • Dissolution level of form HCl-H1 in Fed-State Simulated Intestinal Fluid [FeSSIF, pH 5.0] at 37° C. was determined to be approx. 1.50 mg/mL (after 15 min), approx. 4.16 mg/mL (after 60 min), and approx. 4.54 mg/mL (after 120 min), respectively (see example 17).

[4] abbreviates: relative humidity range 0-80% rh.
[5] abbreviates: relative humidity range 0-90% rh.
The mark [6] stands for this setting: entire relative humidity range 0-98% rh.

For `Cc1cc(S(C)(=O)=O)c(S(C)(=O)=O)cc1C(=O)NC(=N)N` [Maleate-NF1, N-(4,5-bis-methanesulfonyl-2-methyl-benzoyl)-guanidine], the “Thermal stability (mp/dec)” value in data set [1] was greater than 170 °C.
For `Cc1cc(S(C)(=O)=O)c(S(C)(=O)=O)cc1C(=O)NC(=N)N` [Fumarate-NF1, N-(4,5-bis-methanesulfonyl-2-methyl-benzoyl)-guanidine], the “Dissolution levels in FeSSIF pH 5.0” value was 2.606 mg/mL in data set [2] (5 min); 4.22±0.02 mg/mL and 4.222 mg/mL in data set [2] (15 min); 4.34±0.02 mg/mL and 4.337 mg/mL in data set [2] (60 min); 4.36±0.02 mg/mL and 4.361 mg/mL in data set [2] (120 min). In data set [2], the “Dissolution behavior compared to prior-art form HCl-H1” value is “improved dissolution behavior”. Also, in data set [3], the “Hygroscopicity classification acc. to Ph. Eur. criteria (section 5.11.)” value is on record as “slightly hygroscopic”.
For `Cc1cc(S(C)(=O)=O)c(S(C)(=O)=O)cc1C(=O)NC(=N)N` [Tosylate-NF1, N-(4,5-bis-methanesulfonyl-2-methyl-benzoyl)-guanidine], the “Dissolution levels in FeSSIF pH 5.0” value was 1.961 mg/mL in data set [2] (5 min); 4.85±0.02 mg/mL and 4.850 mg/mL in data set [2] (15 min); 5.28±0.02 mg/mL and 5.285 mg/mL in data set [2] (60 min); 2.86±0.02 mg/mL and 2.859 mg/mL in data set [2] (120 min). In addition, the “Dissolution behavior compared to prior-art form HCl-H1” value in data set [2] is on record as “improved dissolution behavior”. The “Hygroscopicity classification acc. to Ph. Eur. criteria (section 5.11.)” value in data set [3] is given as “slightly hygroscopic”. Besides, the “Water uptake levels (Water Vapour Sorption)” value (“Water uptake levels” below) in data set [3] (setting [4]) is on record as 1.0 wt %. For the same compound, the “Thermally stable up to” value in data set [1] was roughly 180 °C.
For the compound `Cc1cc(S(C)(=O)=O)c(S(C)(=O)=O)cc1C(=O)NC(=N)N` [Phosphate-NF1, N-(4,5-bis-methanesulfonyl-2-methyl-benzoyl)-guanidine], the “Dissolution levels in FeSSIF pH 5.0” value is 3.373 mg/mL in data set [2] (5 min); 5.92±0.02 mg/mL and 5.919 mg/mL in data set [2] (15 min); 6.35±0.02 mg/mL and 6.345 mg/mL in data set [2] (60 min); 6.35±0.02 mg/mL and 6.345 mg/mL in data set [2] (120 min). In data set [2], the “Dissolution behavior compared to prior-art form HCl-H1” value is “improved dissolution behavior”. Also, the “Hygroscopicity classification acc. to Ph. Eur. criteria (section 5.11.)” value in data set [3] is “slightly hygroscopic”. Besides, the “Water uptake levels” value in data set [3] (setting [5]) is no more than 1.0 wt %. In addition, in data set [3], the “Tendency to undergo hydrate formation” value was “no tendency to undergo hydrate formation”. The “Thermal stability (mp/dec)” value in data set [1] was greater than 230 °C.
Turning to `Cc1cc(S(C)(=O)=O)c(S(C)(=O)=O)cc1C(=O)NC(=N)N` [HBr-NF1, N-(4,5-bis-methanesulfonyl-2-methyl-benzoyl)-guanidine], the “Hygroscopicity classification acc. to Ph. Eur. criteria (section 5.11.)” value in data set [3] is on record as “non-hygroscopic”. Further, in data set [3] (relative humidity range 10-90% rh), the “Water uptake levels” value is listed as 4.3-4.4 wt %.
For the compound `Cc1cc(S(C)(=O)=O)c(S(C)(=O)=O)cc1C(=O)NC(=N)N` [Succinate-NF1, N-(4,5-bis-methanesulfonyl-2-methyl-benzoyl)-guanidine], the “Dissolution levels in FeSSIF pH 5.0” value is 1.105 mg/mL in data set [2] (5 min); 3.26±0.02 mg/mL and 3.260 mg/mL in data set [2] (15 min); 5.10±0.02 mg/mL and 5.104 mg/mL in data set [2] (60 min); 5.03±0.02 mg/mL and 5.032 mg/mL in data set [2] (120 min). Further, the “Dissolution behavior compared to prior-art form HCl-H1” value in data set [2] is listed as “improved dissolution behavior”. Moreover, the “Hygroscopicity classification acc. to Ph. Eur. criteria (section 5.11.)” value in data set [3] is reported as “non-hygroscopic”. Besides, in data set [3] (setting [4]), the “Water uptake levels” value is listed as no more than 0.2 wt %. Further, the “Thermal stability (mp/dec)” value in data set [1] was greater than 200 °C.
Consider `Cc1cc(S(C)(=O)=O)c(S(C)(=O)=O)cc1C(=O)NC(=N)N` [Malate-NF1, N-(4,5-bis-methanesulfonyl-2-methyl-benzoyl)-guanidine], for which the “Dissolution levels in FeSSIF pH 5.0” value was 5.510 mg/mL in data set [2] (5 min); 5.51±0.02 mg/mL and 5.510 mg/mL in data set [2] (15 min); 5.51±0.02 mg/mL and 5.510 mg/mL in data set [2] (60 min); 4.27±0.02 mg/mL and 4.275 mg/mL in data set [2] (120 min). In addition, the “Dissolution behavior compared to prior-art form HCl-H1” value in data set [2] was “improved dissolution behavior”. Also, the “Hygroscopicity classification acc. to Ph. Eur. criteria (section 5.11.)” value in data set [3] is recorded as “hygroscopic”. For the same compound, the “Water uptake levels” value in data set [3] (setting [5]) was 7.5 wt %.
Take `Cc1cc(S(C)(=O)=O)c(S(C)(=O)=O)cc1C(=O)NC(=N)N` [Oxalate-NF1, N-(4,5-bis-methanesulfonyl-2-methyl-benzoyl)-guanidine]: the “Dissolution levels in FeSSIF pH 5.0” value in data set [2] (5 min) was 1.329 mg/mL; in data set [2] (15 min), 2.09±0.02 mg/mL and 2.095 mg/mL; in data set [2] (60 min), 3.04±0.02 mg/mL and 3.042 mg/mL; in data set [2] (120 min), 3.02±0.02 mg/mL and 3.025 mg/mL. For the same compound, the “Dissolution behavior compared to prior-art form HCl-H1” value in data set [2] is “improved dissolution behavior”. In addition, the “Hygroscopicity classification acc. to Ph. Eur. criteria (section 5.11.)” value in data set [3] is given as “non-hygroscopic”. Also, the “Tendency to undergo hydrate formation” value in data set [3] is “no tendency to undergo hydrate formation”. Further, the “Thermal stability (mp/dec)” value in data set [1] is greater than 260 °C.
For the compound `Cc1cc(S(C)(=O)=O)c(S(C)(=O)=O)cc1C(=O)NC(=N)N` [HCl-A2, N-(4,5-bis-methanesulfonyl-2-methyl-benzoyl)-guanidine], the “Dissolution levels in FeSSIF pH 5.0” value in data set [2] (5 min) is 0.990 mg/mL; in data set [2] (15 min) it was 1.19±0.02 mg/mL and 1.193 mg/mL; in data set [2] (60 min), 1.90±0.02 mg/mL and 1.897 mg/mL; in data set [2] (120 min) it was 2.21±0.02 mg/mL and 2.213 mg/mL. For the same compound, the “Hygroscopicity classification acc. to Ph. Eur. criteria (section 5.11.)” value in data set [3] is recorded as “non-hygroscopic”. Further, the “Water uptake levels” value in data set [3] (setting [4]) is 0.1 wt %. Also, the “Thermal stability (mp/dec)” value in data set [1] is greater than 240 °C.
Consider `Cc1cc(S(C)(=O)=O)c(S(C)(=O)=O)cc1C(=O)NC(=N)N` [HCl-A3, N-(4,5-bis-methanesulfonyl-2-methyl-benzoyl)-guanidine], for which the “Dissolution levels in FeSSIF pH 5.0” value was 0.418 mg/mL in data set [2] (5 min); 0.74±0.02 mg/mL and 0.738 mg/mL in data set [2] (15 min); 2.51±0.02 mg/mL and 2.506 mg/mL in data set [2] (60 min); 3.78±0.02 mg/mL and 3.781 mg/mL in data set [2] (120 min). The “Hygroscopicity classification acc. to Ph. Eur. criteria (section 5.11.)” value in data set [3] is “non-hygroscopic”. For the same compound, the “Water uptake levels” value in data set [3] (setting [6]) is no more than 0.4 wt %. Further, in data set [1], the “Thermal stability (mp/dec)” value is greater than 240 °C.
`Cc1cc(S(C)(=O)=O)c(S(C)(=O)=O)cc1C(=O)NC(=N)N` (racemic) [Tartrate-NF1, N-(4,5-bis-methanesulfonyl-2-methyl-benzoyl)-guanidine]: the “Dissolution levels in FeSSIF pH 5.0” value in data set [2] (5 min) was 5.165 mg/mL; in data set [2] (15 min), 5.17±0.02 mg/mL and 5.165 mg/mL; in data set [2] (60 min), 5.17±0.02 mg/mL and 5.165 mg/mL; in data set [2] (120 min) it was 5.17±0.02 mg/mL. Moreover, in data set [2], the “Dissolution behavior compared to prior-art form HCl-H1” value is reported as “improved dissolution behavior”. Further, the “Hygroscopicity classification acc. to Ph. Eur. criteria (section 5.11.)” value in data set [3] is recorded as “slightly hygroscopic”. For the same compound, the “Water uptake levels” value in data set [3] (setting [5]) is recorded as no more than 1.0 wt %.
On to `Cc1cc(S(C)(=O)=O)c(S(C)(=O)=O)cc1C(=O)NC(=N)N` [HCl-A1, N-(4,5-bis-methanesulfonyl-2-methyl-benzoyl)-guanidine], for which the “Dissolution levels in FeSSIF pH 5.0” value in data set [2] (5 min) was 0.541 mg/mL; in data set [2] (15 min), 0.87±0.02 mg/mL and 0.866 mg/mL; in data set [2] (60 min), 2.53±0.02 mg/mL and 2.535 mg/mL; in data set [2] (120 min) it was 2.76±0.02 mg/mL and 2.765 mg/mL.
As for `Cc1cc(S(C)(=O)=O)c(S(C)(=O)=O)cc1C(=O)NC(=N)N.Cl.O` [HCl-H1, N-(4,5-bismethanesulfonyl-2-methylbenzoyl)-guanidine hydrochloride hydrate, reference compound], the “Dissolution levels in FeSSIF pH 5.0” value in data set [2] (5 min) is reported as 0.494 mg/mL. The “Hygroscopicity classification acc. to Ph. Eur. criteria (section 5.11.)” value in data set [3] was “non-hygroscopic”. The “Water uptake levels” value in data set [3] (setting [6]) was no more than 0.2 wt %.
